US10206921B2, “Methods and compositions for treating a subject for central nervous system (CNS) injury” (THE REGENTS OF THE UNIVERSITY OF CALIFORNIA, priority 2009, dated 2019)
“Also recorded” adds a separate entry of the source.

Tests used:
[1] = test system: GABAARs; assay: GABAAR saturation test: GABA raised in ACSF after blocking both GATs; format: cell-based, mouse; conditions: GABA +10 μM in ACSF after 10 μM NO-711+40 μM SNAP-5114; control slices; n=3
Text: (§1) Whole-cell patch-clamp recordings were made from post-stroke brain slices, within 200 μm of infarct (top left), from layer-2/3 (top right) pyramidal neurons (bottom panels) (FIG. 1A). Cells were voltage-clamped at +10 mV.

[2] = molecular target: T1, GABA transporters (GATs): GAT-1, GAT-3/4 (Mus musculus, UniProt P31648); assay: Whole-cell patch-clamp of tonic inhibition (Itonic) in brain slices after GAT blockade; format: cell-based; conditions: NO-711 10 μM
T1 construct: Whole-cell patch-clamp recordings were made from post-stroke brain slices; from tissue; host or cells: brain slices, peri-infarct motor cortex, recordings from layer 2/3 pyramidal neurons
Text: as §1, with “mV. […] FIGS. 1C and D show representative traces showing the tonic inhibitory currents in control and peri-infarct neurons, respectively.” for “mV.”
(§2) Itonic remained elevated from 3- to 14-days post-stroke.
(§3) In post-stroke neurons, co-application only produced an effect (110.7±32.0%, n=5) similar to GAT-1 blockade alone (P<0.68; FIG. 2A), indicating a dysfunction in GAT-3/4 after stroke.

[3] = test system: mice after stroke; assay: Behavioral/functional recovery after stroke (grid-walking and cylinder tasks together); format: in vivo, mouse
Method: The GABAaα5 inverse agonist L655,708 was administered through subcutaneously implanted osmotic minipumps. Mice were tested fore- and hindlimb function before, and then at one, two, four and six weeks after stroke.
FIGS. 9A-9C illustrate behavioral recovery after stroke in young and aged animals with L655,708. […] Functional recovery was assessed behaviorally on both the gridwalking task for forelimb footfaults (FIG. 9A) and hindlimb footfaults (FIG. 9B), and on the cylinder task for forelimb asymmetry (FIG. 9C). […] On average the normal gain of function in the aged stroke+vehicle treated animals is less than that of the young stroke+vehicle treated animals. In addition, the aged stroke+L655,708 animals show slightly less improvement compared to young stroke+L655,708 animals. For instance, on the cylinder task young stroke+L655,708 animals show a 15-18% gain of function post-stroke (7 to 42-days), compared with a 13-16% gain of function post-stroke in the aged. Data is shown as mean±s.e.m. for n=8 per group for L655,708 treatment for both young and aged animals, ***=P≤0.001 for stroke+vehicle vs Sham; +=P≤0.05, ++=P≤0.001 aged stroke+L655,708 vs aged stroke+vehicle, ##=P≤0.01, #=P≤0.001 young stroke+L655,708 vs young stroke+vehicle.
Functional recovery was assessed behaviorally on both the gridwalking task for forelimb footfaults (FIG. 10A), hindlimb footfaults (FIG. 10B), and on the cylinder task for forelimb asymmetry (FIG. 10C). Data are shown as mean±s.e.m. for n=8 per group, ***=P≤0.001 for stroke+vehicle vs. Sham; ##=P≤0.01, #=P≤0.001 vs. stroke+vehicle.
Two different durations of treatment were used (2 weeks and 6 weeks after stroke. Because stroke is a disease of aging, and the clinical target of stroke is most commonly aged patients, L655,708 was tested in aged animals after stroke. At the end of behavioral testing (6 weeks after stroke) mice received mapping of the pattern of cortical connections in the motor system in peri-infarct cortex (Overman J J, Kalaria S, Overman B, Willis D, Twiss J, Wanner I B, Li S, Carmichael S T (2008) Post-stroke blockade of ephrinA5 increases axonal sprouting in the mouse somatosensory cortex. Soc Neurosci. Abst.). Axonal sprouting in this pen-infarct cortex is closely associated with functional recovery in stroke (Carmichael, '06). Therapies directed toward neural repair after stroke promote the formation of new connections in peri-infarct cortex (Overman et al., '08).
To define the total role of GABAA α5 and δ receptors in functional recovery after stroke, behavioral testing was performed on Gabra5^−/− and Gabrd^−/− mice (FIGS. 8A-8C). For both α5 and δ knockouts, the same experimental approach was utilized. Mice were tested for e- and hindlimb function before stroke. […]

[4] = test system: mice after stroke; assay: Cylinder task (spontaneous forelimb use when rearing) after stroke; format: in vivo, mouse; conditions: for gain of function post-stroke on the cylinder task: 7 to 42 days post-stroke
Text: (§4) Stroke completely destroys the tissue in at the center of the stroke (the core) and partially damages the tissue adjacent to the infarct (Katsman D, Spinelli K, Zhang J, and Carmichael S T (2003) Tissue microenvironments within functional cortical subdivisions adjacent to focal stroke. J Cereb Blood Flow Met 23:997-1009; Carmichael S T, Archibeque I, Luke L, Nolan T, Momiy J, Li S. (2005) Growth-Associated Gene Expression after Stroke: Evidence for a growth-promoting region in peri-infarct cortex. Expt Neurol. 193:291-311), i.e., the peri-infarct region. Studies indicate that this peri-infarct region is disabled through partial damage to neuronal circuits, as described above. To model this process experimentally, a stroke model was used that produces complete damage to a part of the brain that controls forelimb use in a mouse, the forelimb motor cortex (FIGS. 5A-5B). […] The stroke destroys part of the forelimb motor cortex. The vertical line indicates site of tissue sections in the middle panel. […] The stroke damage is restricted to the cortex, with partial damage in adjacent white mater and surrounding motor areas. This damage is seen as increased staining for GFAP (reactive astrocytes, arrows) and increased cellularity in Nissl stains (arrows). This stroke knocks out part of the forelimb motor cortex and causes partial damage to the rest of forelimb cortex and to hindlimb motor cortex. This disables fore- and hindlimb control and produces weakness in using these limbs for walking and for exploratory forelimb behaviors, (such as using the forelimb when rearing onto objects, FIGS. 6A-6C). Measures of fore- and hindlimb behaviors in this model of stroke thus provide a readout of the function of partially damaged brain areas near the stroke core.
Treatments that must be administered very early in the clinical course of stroke, such as tPA, are difficult to deliver because most patients are not in the hospital and so rapid emergency response and laboratory screening systems must be developed. […]

[5] = molecular target: T2, α5GABAA receptor (Mus musculus, UniProt P22723+Q8BHJ7); assay: Whole-cell patch-clamp of tonic inhibition (Itonic) in brain slices with L655,708; format: cell-based
T2 construct: Whole-cell patch-clamp recordings were made from post-stroke brain slices; from tissue; host or cells: brain slices, peri-infarct motor cortex, layer 2/3 pyramidal neurons
T2 sequence (Q8BHJ7 32-463 limits assumed): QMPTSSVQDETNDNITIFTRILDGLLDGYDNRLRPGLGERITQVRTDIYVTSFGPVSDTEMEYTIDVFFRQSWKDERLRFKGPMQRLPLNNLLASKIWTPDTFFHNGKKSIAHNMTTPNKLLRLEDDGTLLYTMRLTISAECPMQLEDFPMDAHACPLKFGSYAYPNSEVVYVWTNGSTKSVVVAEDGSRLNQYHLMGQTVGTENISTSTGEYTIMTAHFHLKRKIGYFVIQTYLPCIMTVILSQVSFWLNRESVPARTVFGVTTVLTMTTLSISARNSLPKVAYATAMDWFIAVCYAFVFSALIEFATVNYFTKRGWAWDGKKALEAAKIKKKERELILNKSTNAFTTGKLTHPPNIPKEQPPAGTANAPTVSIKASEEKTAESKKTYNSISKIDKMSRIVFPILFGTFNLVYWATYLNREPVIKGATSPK
T2 sequence (P22723 39-474): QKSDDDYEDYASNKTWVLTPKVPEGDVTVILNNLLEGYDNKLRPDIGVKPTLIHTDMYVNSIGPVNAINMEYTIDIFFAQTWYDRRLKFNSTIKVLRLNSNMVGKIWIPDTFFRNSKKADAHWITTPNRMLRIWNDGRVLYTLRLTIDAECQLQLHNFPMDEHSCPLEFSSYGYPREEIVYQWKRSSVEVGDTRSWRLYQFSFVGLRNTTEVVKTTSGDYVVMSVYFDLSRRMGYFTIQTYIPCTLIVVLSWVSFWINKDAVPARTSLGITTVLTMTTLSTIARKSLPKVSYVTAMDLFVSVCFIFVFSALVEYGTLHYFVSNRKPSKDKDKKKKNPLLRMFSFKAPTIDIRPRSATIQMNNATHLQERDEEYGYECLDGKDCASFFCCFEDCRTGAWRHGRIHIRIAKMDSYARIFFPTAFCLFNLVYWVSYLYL
T2 sequence (P63080 26-473 partner): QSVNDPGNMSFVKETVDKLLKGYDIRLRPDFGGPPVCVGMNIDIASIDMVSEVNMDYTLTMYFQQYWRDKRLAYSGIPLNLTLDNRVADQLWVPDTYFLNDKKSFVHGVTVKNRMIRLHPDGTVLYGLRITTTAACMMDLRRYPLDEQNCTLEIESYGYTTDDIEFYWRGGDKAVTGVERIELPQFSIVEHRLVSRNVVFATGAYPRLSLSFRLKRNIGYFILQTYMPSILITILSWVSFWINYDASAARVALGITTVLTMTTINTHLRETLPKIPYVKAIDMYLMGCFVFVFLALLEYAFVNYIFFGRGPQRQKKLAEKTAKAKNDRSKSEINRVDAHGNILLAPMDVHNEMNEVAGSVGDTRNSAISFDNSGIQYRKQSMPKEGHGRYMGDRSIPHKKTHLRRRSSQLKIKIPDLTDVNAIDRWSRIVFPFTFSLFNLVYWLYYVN
Text: as §1, with “mV. […] FIGS. 1C and D show representative traces showing the tonic inhibitory currents in control and peri-infarct neurons, respectively.” for “mV.”
as §2, §3

[6] = test system: mice after stroke; assay: Grid-walking task after stroke in forelimb motor cortex; format: in vivo, mouse; conditions: subcutaneous osmotic minipump from 3 days after stroke
Text: as §4, with “This damage is seen as increased staining for GFAP (reactive astrocytes, arrows) and increased cellularity in Nissl stains (arrows). This stroke knocks out part of the forelimb motor cortex and causes partial damage to the rest of forelimb cortex and to hindlimb motor cortex. This disables fore- and hindlimb control and produces weakness in using these limbs for walking and for exploratory forelimb behaviors, (such as using the forelimb when rearing onto objects, FIGS. 6A-6C).” left out, “core. […]” for “core.”

## NCCCC(=O)O [GABA, gamma aminobutyric acid]
[1]
  percent increase in Itonic: 25.7±15.0%

## O=C(O)C1=CCCN(CCON=C(c2ccccc2)c2ccccc2)C1 [NO-711]
[2]; control neurons, n=6
  % Itonic increase after GAT blockade: 34.3±11.4%
[2]; post-stroke neurons, n=10
  % Itonic increase after GAT blockade: 94.0±16.3%

## CCOC(=O)c1ncn2c1[C@@H]1CCCN1C(=O)c1cc(OC)ccc1-2 [L655,708]
[3]; 2-week and 6-week treatment, 6-week the most significant recovery
  behavioral recovery after stroke, dosing duration: produces behavioral recovery
[3]; L655,708 given to GABAA receptor δ subunit null mutant mice
  functional recovery after stroke in Gabrd−/− mice: additive effect on functional recovery; also recorded: further functional recovery
[3]; treatment from 3 days after stroke, young and aged animals, FIGS. 9A-9C
  functional recovery after stroke: increase in functional recovery in both young and aged animals
[3]; young adult and aged mice, low and high dose
  behavioral recovery after stroke, dose dependence: promotes behavioral recovery after stroke in a dose-dependent manner
[4]; aged stroke animals
  gain of function post-stroke on the cylinder task: 13-16%
[4]; subcutaneous osmotic minipump from 3 days after stroke, 7 day post-stroke test period, FIG. 6C
  forelimb function in the cylinder task: recovered right forelimb use very quickly
[4]; young stroke animals
  gain of function post-stroke on the cylinder task: 15-18%
[5]; 100 nM, representative recording (FIG. 2D)
  effect on Itonic: reduced Itonic
[5]; post-stroke neurons, P<0.05 (FIG. 2F)
  effect on post-stroke Itonic: significantly decreased post-stroke Itonic, and notably reverted Itonic to near-control level
[6]; FIG. 6B
  hindlimb function in the grid-walking task: statistically significant improvement by the 42 day testing period
[6]; approx. 200 or 400 μg/kg/day, FIG. 6A
  forelimb function in the grid-walking task: enhanced forelimb use
